{"source": "patent US8586579B2", "about": "“Anellated pyridine compounds” (Hoffmann-La Roche Inc., priority 2010, dated 2013)", "key": {"[1]": {"target": "human D2 receptor (Homo sapiens (Human), UniProt P14416)", "sequence (P14416 whole entry)": "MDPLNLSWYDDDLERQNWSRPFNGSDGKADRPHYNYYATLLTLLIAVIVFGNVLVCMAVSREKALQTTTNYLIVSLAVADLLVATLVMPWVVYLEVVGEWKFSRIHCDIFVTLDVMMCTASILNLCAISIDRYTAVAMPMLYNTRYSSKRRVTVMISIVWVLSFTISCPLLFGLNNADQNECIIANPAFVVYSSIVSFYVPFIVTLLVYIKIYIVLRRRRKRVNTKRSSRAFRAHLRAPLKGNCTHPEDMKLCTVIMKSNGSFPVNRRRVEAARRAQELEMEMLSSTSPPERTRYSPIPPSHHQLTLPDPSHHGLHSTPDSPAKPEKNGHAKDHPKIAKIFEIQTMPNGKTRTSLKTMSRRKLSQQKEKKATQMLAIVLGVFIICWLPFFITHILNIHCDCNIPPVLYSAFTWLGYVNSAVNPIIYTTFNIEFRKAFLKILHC", "experiment": "Radioligand binding assay, [3H]-spiperone, human D2 receptor", "conditions": "membranes of HEK293 EBNA cells expressing human D2; 0.7 nM [3H]-spiperone", "outline": "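Competition binding used ~0.7 nM [3H]-spiperone, 1 h at room temperature, pH 7.4 Tris/salt buffer, on transiently transfected HEK293 EBNA membranes bearing human D2.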"}, "[2]": {"target": "human D3 receptor (Homo sapiens (Human), UniProt P35462)", "sequence (P35462 whole entry)": "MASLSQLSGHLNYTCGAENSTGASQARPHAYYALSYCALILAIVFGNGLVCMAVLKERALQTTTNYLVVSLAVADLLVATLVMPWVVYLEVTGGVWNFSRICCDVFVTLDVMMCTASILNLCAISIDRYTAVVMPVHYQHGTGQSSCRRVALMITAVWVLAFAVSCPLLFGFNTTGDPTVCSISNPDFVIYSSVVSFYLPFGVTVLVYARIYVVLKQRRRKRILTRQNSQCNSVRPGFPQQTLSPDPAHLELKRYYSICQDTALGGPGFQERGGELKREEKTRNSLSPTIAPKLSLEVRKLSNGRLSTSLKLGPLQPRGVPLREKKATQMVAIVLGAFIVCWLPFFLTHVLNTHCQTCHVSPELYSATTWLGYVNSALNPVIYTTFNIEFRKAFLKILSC", "experiment": "Radioligand binding assay, [3H]-spiperone, human D3 receptor", "conditions": "membranes of HEK293 EBNA cells expressing human D3; 0.5 nM [3H]-spiperone", "outline": "(§1)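 Incubation was 1 h at RT, using 1.1 nM [3H]-ketanserin at 5-HT2A or 0.5 nM [3H]-spiperone at D3, on membranes of transiently transfected HEK293 EBNA cells. Nonspecific binding was set with 10 μM unlabelled spiperone.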"}, "[3]": {"target": "human 5-HT2A receptor (Homo sapiens (Human), UniProt P28223)", "sequence (P28223 whole entry)": "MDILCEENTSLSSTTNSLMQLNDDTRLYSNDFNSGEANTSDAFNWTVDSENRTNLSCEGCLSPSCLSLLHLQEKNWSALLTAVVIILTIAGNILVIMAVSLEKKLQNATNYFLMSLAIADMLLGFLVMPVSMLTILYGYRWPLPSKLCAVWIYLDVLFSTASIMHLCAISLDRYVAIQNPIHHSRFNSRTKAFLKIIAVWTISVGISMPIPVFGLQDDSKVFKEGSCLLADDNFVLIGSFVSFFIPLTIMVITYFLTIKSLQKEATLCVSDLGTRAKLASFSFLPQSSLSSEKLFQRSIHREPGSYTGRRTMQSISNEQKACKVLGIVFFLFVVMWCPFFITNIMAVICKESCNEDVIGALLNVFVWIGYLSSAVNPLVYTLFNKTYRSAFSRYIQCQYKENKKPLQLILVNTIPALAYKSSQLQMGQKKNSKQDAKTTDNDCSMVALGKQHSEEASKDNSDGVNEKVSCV", "experiment": "Radioligand binding assay, [3H]-ketanserin, human 5-HT2A receptor", "outline": "as §1"}, "[4]": {"conditions": "membranes of HEK293 EBNA cells expressing human 5-HT2A, 1.1 nM [3H]-ketanserin"}}, "note": "Read-outs that look alike come from different tables or passages of the source."}
{"smiles": "O=C(C[C@@H]1CCCO1)N[C@H]1CC[C@H](CCN2CCN(c3nccc4c3CCO4)CC2)CC1", "note": "[Example 69, trans-N-(4-{2-[4-(2,3-Dihydro-furo[3,2-c]pyridin-4-yl)-piperazin-1-yl]-ethyl}-cyclohexyl)-2-(S)-(tetrahydro-furan-2-yl)-acetamide]", "values": [{"measurement": "melting point", "result": 183.5, "unit": "°C"}, {"measurement": "Ki", "setting": "[1]", "result": 858, "unit": "nM"}, {"measurement": "Ki", "setting": "[2]", "result": 18.1, "unit": "nM"}, {"measurement": "Ki", "setting": "[3]", "result": 24.9, "unit": "nM"}]}
{"smiles": "CN1CCN(c2ccc(C(=O)N[C@H]3CC[C@H](CCN4CCN(c5nccc6c5CCO6)CC4)CC3)cc2)CC1", "note": "[Example 118, trans-N-(4-{2-[4-(2,3-Dihydro-furo[3,2-c]pyridin-4-yl)-piperazin-1-yl]-ethyl}-cyclohexyl)-4-(4-methyl-piperazin-1-yl)-benzamide]", "values": [{"measurement": "melting point", "result": 236, "unit": "°C"}, {"measurement": "Ki", "setting": "[1]", "result": 180, "unit": "nM"}, {"measurement": "Ki", "setting": "[2]", "result": 14.7, "unit": "nM"}, {"measurement": "Ki", "setting": "[3]; [4]", "result": 4.51, "unit": "nM"}]}
{"smiles": "N#Cc1ccc(C(=O)N[C@H]2CC[C@H](CCN3CCN(c4nccc5c4CCO5)CC3)CC2)cc1", "note": "[Example 117, trans-4-Cyano-N-(4-{2-[4-(2,3-dihydro-furo[3,2-c]pyridin-4-yl)-piperazin-1-yl]-ethyl}-cyclohexyl)-benzamide]", "values": [{"measurement": "melting point", "result": 243.5, "unit": "°C"}, {"measurement": "Ki", "setting": "[1]", "result": 381, "unit": "nM"}, {"measurement": "Ki", "setting": "[2]", "result": 28, "unit": "nM"}, {"measurement": "Ki", "setting": "[3]; [4]", "result": 13, "unit": "nM"}]}
{"smiles": "O=C(N[C@H]1CC[C@H](CCN2CCN(c3nccc4c3CCO4)CC2)CC1)C1(O)CCC1", "note": "[Example 123, 1-Hydroxy-cyclobutanecarboxylic acid trans-(4-{2-[4-(2,3-dihydro-furo[3,2-c]pyridin-4-yl)-piperazin-1-yl]-ethyl}-cyclohexyl)-amide]", "values": [{"measurement": "melting point", "result": 177.5, "unit": "°C"}, {"measurement": "Ki", "setting": "[1]", "result": 959, "unit": "nM"}, {"measurement": "Ki", "setting": "[2]", "result": 131, "unit": "nM"}, {"measurement": "Ki", "setting": "[3]; [4]", "result": 9.8, "unit": "nM"}]}
{"smiles": "O=C(CCC(F)(F)F)N[C@H]1CC[C@H](CCN2CCN(c3nccc4c3CCO4)CC2)CC1", "note": "[Example 95, trans-N-(4-{2-[4-(2,3-Dihydro-furo[3,2-c]pyridin-4-yl)-piperazin-1-yl]-ethyl}-cyclohexyl)-4,4,4-trifluoro-butyramide]", "values": [{"measurement": "melting point", "result": 195.5, "unit": "°C"}, {"measurement": "Ki", "setting": "[1]", "result": 1250, "unit": "nM"}, {"measurement": "Ki", "setting": "[2]", "result": 20, "unit": "nM"}, {"measurement": "Ki", "setting": "[3]", "result": 29.6, "unit": "nM"}]}
{"smiles": "O=C(N[C@H]1CC[C@H](CCN2CCN(c3nccc4c3CCO4)CC2)CC1)c1ccc(-c2cccnc2)cc1", "note": "[Example 120, trans-N-(4-{2-[4-(2,3-Dihydro-furo[3,2-c]pyridin-4-yl)-piperazin-1-yl]-ethyl}-cyclohexyl)-4-pyridin-3-yl-benzamide]", "values": [{"measurement": "melting point", "result": 218, "unit": "°C"}, {"measurement": "Ki", "setting": "[1]", "result": 223, "unit": "nM"}, {"measurement": "Ki", "setting": "[2]", "result": 16.1, "unit": "nM"}, {"measurement": "Ki", "setting": "[3]; [4]", "result": 12.3, "unit": "nM"}]}
{"smiles": "Cc1cc2occc2c(N2CCN(CC[C@H]3CC[C@H](NC(=O)C4CCOCC4)CC3)CC2)n1", "note": "[Example 97, trans-Tetrahydro-pyran-4-carboxylic acid (4-{2-[4-(6-methyl-furo[3,2-c]pyridin-4-yl)-piperazin-1-yl]-ethyl}-cyclohexyl)-amide]", "values": [{"measurement": "melting point", "result": 219, "unit": "°C"}, {"measurement": "Ki", "setting": "[1]", "result": 275, "unit": "nM"}, {"measurement": "Ki", "setting": "[2]", "result": 14.2, "unit": "nM"}, {"measurement": "Ki", "setting": "[3]", "result": 25.5, "unit": "nM"}]}
{"smiles": "Cc1cc2occc2c(N2CCN(CC[C@H]3CC[C@H](NC(=O)CC4CCOCC4)CC3)CC2)n1", "note": "[Example 98, trans-N-(4-{2-[4-(6-Methyl-furo[3,2-c]pyridin-4-yl)-piperazin-1-yl]-ethyl}-cyclohexyl)-2-(tetrahydro-pyran-4-yl)-acetamide]", "values": [{"measurement": "melting point", "result": 212.5, "unit": "°C"}, {"measurement": "Ki", "setting": "[1]", "result": 641, "unit": "nM"}, {"measurement": "Ki", "setting": "[2]", "result": 9.45, "unit": "nM"}, {"measurement": "Ki", "setting": "[3]; [4]", "result": 75.9, "unit": "nM"}]}
{"smiles": "COCCC(=O)N[C@H]1CC[C@H](CCN2CCN(c3nc(C)cc4c3CCO4)CC2)CC1", "note": "[Example 103, trans-3-Methoxy-N-(4-{2-[4-(6-methyl-2,3-dihydro-furo[3,2-c]pyridin-4-yl)-piperazin-1-yl]-ethyl}-cyclohexyl)-propionamide]", "values": [{"measurement": "melting point", "result": 178.5, "unit": "°C"}, {"measurement": "Ki", "setting": "[1]", "result": 1490, "unit": "nM"}, {"measurement": "Ki", "setting": "[2]", "result": 11.8, "unit": "nM"}, {"measurement": "Ki", "setting": "[3]; [4]", "result": 255, "unit": "nM"}]}
{"smiles": "Cc1cnc(N2CCN(CC[C@H]3CC[C@H](NC(=O)CC4CCOCC4)CC3)CC2)c2ccoc12", "note": "[Example 106, trans-N-(4-{2-[4-(7-Methyl-furo[3,2-c]pyridin-4-yl)-piperazin-1-yl]-ethyl}-cyclohexyl)-2-(tetrahydro-pyran-4-yl)-acetamide]", "values": [{"measurement": "melting point", "result": 205.5, "unit": "°C"}, {"measurement": "Ki", "setting": "[1]", "result": 2720, "unit": "nM"}, {"measurement": "Ki", "setting": "[2]", "result": 38, "unit": "nM"}, {"measurement": "Ki", "setting": "[3]; [4]", "result": 11.7, "unit": "nM"}]}
